Measured values reported in publication PMC6332334, “3-H-[1,2]Dithiole as a New Anti-Trypanosoma cruzi Chemotype: Biological and Mechanism of Action Studies” (Molecules, 2015).
Marks after values point to notes of the source that are not given here.

Assays:
cruzipain [1] = molecular target: T1, cruzipain (Trypanosoma cruzi, UniProt P25779); experiment: Inhibition of T. cruzi cruzipain (Z-Phe-Arg-AMC fluorogenic substrate); assay type: biochemical; details: isolated enzyme
T1 construct: endogenous in cells; host or cells: T. cruzi epimastigotes, Tulahuen 2 strain

[2] = system: membrane sterol biosynthesis in epimastigotes of Y strain of T. cruzi; experiment: Inhibition of membrane sterol biosynthesis (qualitative TLC); assay type: cell-based, Trypanosoma cruzi; details: compounds at their IC50, 72 h, 28 °C, compared to control
Description: To do so, we analyzed the accumulation or depletion of some intermediates or final products of this biochemical pathway. Qualitative analyses were performed by thin layer chromatography (TLC).
The parasites, epimastigotes of Y strain of T. cruzi (DTU Tc II), were grown in 6 mL of BHT milieu in culture bottles. […] A negative control was performed with parasites in the absence of compounds. […] The extraction of membrane sterols was performed on completion of the incubation. For this purpose, the content of the culture bottle was centrifuged at 3000 rpm for 10 min, the supernatant was discarded and the pellet was suspended in sodium phosphate buffer solution (6 mL, 0.05 M, pH 7.4). Then it was centrifuged again at 3000 rpm for 10 min and the supernatant was discarded. The resulting pellet was resuspended in a chloroform/methanol (2:1) mixture (5 mL) and the suspension was kept at 4 °C for 12 h. Then, a saturated NaCl solution (5 mL) was added and the mixture extracted once with chloroform (3 mL) and once with hexane (3 mL) with care to avoid taking any aqueous phase. The extracted volume was applied to a silica gel TLC plate. Chromatography was performed eluting with hexane, two runs to identify squalene, and once with hexane/EtOAc (8:2) for ergosterol. […] Also, controls and commercial samples of ergosterol, lanosterol, cholesterol and squalene were run on the TLC plate. […]

[3] = system: epimastigotes of T. cruzi (Tulahuen 2 strain); experiment: Anti-T. cruzi test in vitro (epimastigote growth inhibition); assay type: cell-based, Trypanosoma cruzi
Description: To evaluate the anti-trypanosomal activity of the synthesized 3H-[1,2]dithioles we used T. cruzi, Tulahuen 2 strain (discrete typing unit, DTU, TcVI [18]) in the epimastigote form. […] To establish the selectivity of the compounds against the parasite, unspecific cytotoxicity against mammalian cells (J774.1 murine macrophages) was studied for the most relevant derivatives. The selectivity indexes (SI) were also determined (Table 1).
We used epimastigotes of the Tulahuen 2 strain (DTU, Tc VI) growing in an axenic milieu (BHI-Tryptose). Cells from a 5–7-day-old culture were inoculated in fresh culture milieu to give an initial concentration of 1 × 10^6 cells/mL. The absorbance at 600 nm of the cells in culture was measured every day. At day 5, the milieu was inoculated with different quantities of the compounds from a stock solution in DMSO (DMSO concentration in the culture milieu never exceeded 0.4%). The control was made in the presence of 0.4% DMSO and in the absence of compounds. […] At day 5, the absorbance of the culture was measured and related to the control. The IC50 value was taken as the concentration of drug needed to reduce the absorbance ratio to 50%.

[4] = system: T. cruzi cells (Y strain, DTU Tc II); experiment: 1H-NMR study of the excreted metabolites; assay type: cell-based, Trypanosoma cruzi
Description: To gain insight into the changes promoted by the active 3-propylidene[1,2]dithioles 2 and 14 in some biochemical pathways, the metabolites excreted by the parasite using ^1H-NMR spectroscopy were analyzed. Changes in the excreted metabolites by T. cruzi Y strain (DTU Tc II, [24]), when the parasite cells were exposed to a bioactive compound, could be indicative of the modification of the biochemical pathway(s) by the agents. Spectra of the cell-free milieu of treated parasites were compared with those of the untreated T. cruzi-free milieu as the control. We focused mainly on the changes of excreted salts of the carboxylic acids, lactate (Lac), acetate (Ace), pyruvate (Pyr), and succinate (Succ) and the amino acids, alanine (Ala) and glycine (Gly), among the most relevant modified metabolites.
For the ^1H-NMR spectroscopic studies, T. cruzi cells (Y strain, DTU Tc II) treated for 2 days, with each studied compound at concentrations corresponding to 2 × IC50 values (5 mL) were centrifuged at 1500× g for 10 min at 4 °C. The pellet was discarded, and the parasite-free supernatant was stored at −20 °C until use. Before measuring, DMF (0.1 mL, 10 mM) as the internal standard and D2O (0.1 mL) were added to the supernatant (0.3 mL). ^1H-NMR experiments were recorded at 20 °C on a Bruker Advance DPX-400 spectrometer (Bruker), operating at 400.132 MHz, with a 5 mm broadband inverse geometry probe. The acquisition parameters included: 90° pulse (zgpr, advance-version v 1.7.10.2, 1D sequence with f1 presaturation), 128 scans, and spectral width of 14.983 ppm. The acquisition time was 1.3664 s. Signal intensities were calculated by performing appropriate baseline corrections and then integrating the area under each of the resonances using MestRe-C NMR software. Spectra were analyzed using the Topspin 1.3 software package. The spectra were registered with water suppression in 5 mm NMR (Aldrich, St. Louis, MO, USA) sample tubes. The chemical displacements used to identify the respective metabolites were previously confirmed by adding each analyzed metabolite to the studied supernatant, as well as by the study of a control solution with 4 μg/mL of each metabolite in buffer (phosphate, pH = 7.4). Each run was done at least in triplicate and the Student t test was used to analyze the significance of the changes. […]

cruzipain [5] = molecular target: T1, cruzipain; experiment: Inhibition of T. cruzi cruzipain (Z-Phe-Arg-AMC fluorogenic substrate); assay type: biochemical; details: percentage of enzymatic inhibition at 100 μM; read-out: Cruzipain % Inhib100
Description: Initially, we tested the dithioles as inhibitors of the protease cruzipain from T. cruzi at a concentration of 100 μM.
Cruzipain was purified to homogeneity from epimastigotes of the Tulahuen 2 strain by ConA-Sepharose affinity chromatography, as previously described. Cruzipain (2.5 μM ε = 58,285 M^−1·cm^−1) was incubated in 50 mM acetate buffer pH 5.5 with 50 mM DTT and 100 μM inhibitor was added, shaking the solution for 15 min at 27 °C. The derivatives were added diluted in DMSO, and the controls contained the same solvent concentration. The concentration of DMSO never exceeded 1% in the reaction medium. E-64 was used as a positive control of inhibition. Then, the fluorogenic substrate Z-Phe-Arg-AMC (100 μM) was added and the fluorescence was measured during 10 min at intervals of 3 s (excitation at 350 nm and emission at 460 nm) using a Varioskan Flash Spectrophotometer. From the slope of the negative control, we calculated the total (100%) enzyme activity, while the slopes obtained in the presence of the compounds yielded the percentage of remaining enzyme activity. The percentage of enzyme inhibition was determined as […]. The experiments were done in duplicate.

[6] = IC50 × 2, 2 days, DMF internal standard

T1 sequence (P25779 123-467): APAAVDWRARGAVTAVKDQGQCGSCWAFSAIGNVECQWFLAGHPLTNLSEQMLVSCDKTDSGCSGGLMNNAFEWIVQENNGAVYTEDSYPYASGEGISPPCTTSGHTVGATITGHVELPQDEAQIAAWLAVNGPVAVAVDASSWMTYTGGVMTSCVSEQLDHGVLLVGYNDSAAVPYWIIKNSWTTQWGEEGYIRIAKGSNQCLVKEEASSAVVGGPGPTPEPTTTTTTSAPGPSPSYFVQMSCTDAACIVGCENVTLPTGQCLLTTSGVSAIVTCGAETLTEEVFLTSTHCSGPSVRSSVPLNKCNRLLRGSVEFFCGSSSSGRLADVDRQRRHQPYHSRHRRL

CC(=O)COc1ccc(C2=C/C(=C(\SCC(C)=O)C(C)=O)SS2)cc1 [Derivative 2]
IC50 (cruzipain [1]): 15.5 ± 2.7 µM | Changes in membrane sterols and intermediates (squalene, ergosterol) [2]: accumulate squalene and deplete ergosterol | IC50 ([3]; Trypanosoma cruzi, epimastigotes, Tulahuen 2 strain, triplicate, read-out: IC50 against T. cruzi): 7.7 ± 1.4 µM | SI (selectivity index) ([3]; macrophages (J774.1) vs T. cruzi epimastigotes): 3.1 | Concentration of excreted Ace [4, 6]: 23.28 ± 0.86 | Concentration of excreted Ala [4, 6]: 17.76 ± 0.61 | Concentration of excreted Gly [4, 6]: 2.11 ± 0.11 ^c | Concentration of excreted Lac [4, 6]: 8.73 ± 0.37 | Concentration of excreted Pyr [4, 6]: 8.00 ± 0.35 | Concentration of excreted Succ [4, 6]: 5.83 ± 0.24 | Change of excreted metabolites compared to the control ([4]; IC50 × 2, p < 0.05 Student's t-test): significantly decreased the levels of excreted Gly and Pyr | inhibition at 100 µM (cruzipain [5]): 91.3 ± 2.8%
